Test results published in ChEMBL document CHEMBL2417397, “Synthesis and biological properties of new N-Mannich bases derived from 3-methyl-3-phenyl- and 3,3-dimethyl-succinimides. Part V” (Eur J Med Chem, 2013).
Active and inactive are the calls of the source. No cut-off for these calls is given here.

Experiments:
Vibrio harveyi [1] = test: Antimutagenic activity in Vibrio harveyi BB7XM assessed as inhibition of 4-nitroquinoline-N-oxide-induced mutation; format: functional
Rattus norvegicus [2] = organism: Rattus norvegicus; test: Protective index, ratio of TD50 for Sprague-Dawley albino rat by rotarod test to ED50 for Sprague-Dawley albino rat; format: functional
[3] = Neurotoxicity in ip dosed CF-1 albino mouse after 0.5 hrs by rotarod test; format: toxicity, organism-based; conditions: CF-1, mouse, in vivo
Mus musculus [4] = organism: Mus musculus; test: Protective index, ratio of TD50 for CF-1 albino mouse by rotarod test to ED50 for CF-1 albino mouse; format: functional
Mus musculus [5] = test: Anticonvulsant activity in ip dosed CF-1 albino mouse assessed as protection against maximal electroshock-induced seizures after 0.5 to 4 hrs; format: functional
Mus musculus [6] = test: Anticonvulsant activity in CF-1 albino mouse assessed as protection against 6 Hz psychomotor seizure at 100 mg/kg, ip after 0.25 to 4 hrs; format: functional; conditions: route intraperitoneal
Vibrio harveyi [7] = test: Antimutagenic activity in Vibrio harveyi BB7 assessed as inhibition of 4-nitroquinoline-N-oxide-induced mutation; format: functional
Mus musculus [8] = test: Anticonvulsant activity in CF-1 albino mouse assessed as protection against 6 Hz psychomotor seizure at 100 mg/kg, ip after 0.25 hrs; format: functional
Mus musculus [9] = test: Anticonvulsant activity in CF-1 albino mouse assessed as protection against 6 Hz psychomotor seizure at 100 mg/kg, ip after 4 hrs; format: functional
Rattus norvegicus [10] = test: Anticonvulsant activity in Sprague-Dawley albino rat assessed as protection against maximal electroshock-induced seizures at 30 mg/kg, po after 0.5 hrs; format: functional
[11] = biological target: Sodium channel protein type 2 subunit alpha (Homo sapiens) (UniProt Q99250); test: Inhibition of NaV1.2 channel (unknown origin) at 1 uM by electrophysiology
Sodium channel protein type 2 subunit alpha (Homo sapiens), sequence (Q99250 whole entry, looked up): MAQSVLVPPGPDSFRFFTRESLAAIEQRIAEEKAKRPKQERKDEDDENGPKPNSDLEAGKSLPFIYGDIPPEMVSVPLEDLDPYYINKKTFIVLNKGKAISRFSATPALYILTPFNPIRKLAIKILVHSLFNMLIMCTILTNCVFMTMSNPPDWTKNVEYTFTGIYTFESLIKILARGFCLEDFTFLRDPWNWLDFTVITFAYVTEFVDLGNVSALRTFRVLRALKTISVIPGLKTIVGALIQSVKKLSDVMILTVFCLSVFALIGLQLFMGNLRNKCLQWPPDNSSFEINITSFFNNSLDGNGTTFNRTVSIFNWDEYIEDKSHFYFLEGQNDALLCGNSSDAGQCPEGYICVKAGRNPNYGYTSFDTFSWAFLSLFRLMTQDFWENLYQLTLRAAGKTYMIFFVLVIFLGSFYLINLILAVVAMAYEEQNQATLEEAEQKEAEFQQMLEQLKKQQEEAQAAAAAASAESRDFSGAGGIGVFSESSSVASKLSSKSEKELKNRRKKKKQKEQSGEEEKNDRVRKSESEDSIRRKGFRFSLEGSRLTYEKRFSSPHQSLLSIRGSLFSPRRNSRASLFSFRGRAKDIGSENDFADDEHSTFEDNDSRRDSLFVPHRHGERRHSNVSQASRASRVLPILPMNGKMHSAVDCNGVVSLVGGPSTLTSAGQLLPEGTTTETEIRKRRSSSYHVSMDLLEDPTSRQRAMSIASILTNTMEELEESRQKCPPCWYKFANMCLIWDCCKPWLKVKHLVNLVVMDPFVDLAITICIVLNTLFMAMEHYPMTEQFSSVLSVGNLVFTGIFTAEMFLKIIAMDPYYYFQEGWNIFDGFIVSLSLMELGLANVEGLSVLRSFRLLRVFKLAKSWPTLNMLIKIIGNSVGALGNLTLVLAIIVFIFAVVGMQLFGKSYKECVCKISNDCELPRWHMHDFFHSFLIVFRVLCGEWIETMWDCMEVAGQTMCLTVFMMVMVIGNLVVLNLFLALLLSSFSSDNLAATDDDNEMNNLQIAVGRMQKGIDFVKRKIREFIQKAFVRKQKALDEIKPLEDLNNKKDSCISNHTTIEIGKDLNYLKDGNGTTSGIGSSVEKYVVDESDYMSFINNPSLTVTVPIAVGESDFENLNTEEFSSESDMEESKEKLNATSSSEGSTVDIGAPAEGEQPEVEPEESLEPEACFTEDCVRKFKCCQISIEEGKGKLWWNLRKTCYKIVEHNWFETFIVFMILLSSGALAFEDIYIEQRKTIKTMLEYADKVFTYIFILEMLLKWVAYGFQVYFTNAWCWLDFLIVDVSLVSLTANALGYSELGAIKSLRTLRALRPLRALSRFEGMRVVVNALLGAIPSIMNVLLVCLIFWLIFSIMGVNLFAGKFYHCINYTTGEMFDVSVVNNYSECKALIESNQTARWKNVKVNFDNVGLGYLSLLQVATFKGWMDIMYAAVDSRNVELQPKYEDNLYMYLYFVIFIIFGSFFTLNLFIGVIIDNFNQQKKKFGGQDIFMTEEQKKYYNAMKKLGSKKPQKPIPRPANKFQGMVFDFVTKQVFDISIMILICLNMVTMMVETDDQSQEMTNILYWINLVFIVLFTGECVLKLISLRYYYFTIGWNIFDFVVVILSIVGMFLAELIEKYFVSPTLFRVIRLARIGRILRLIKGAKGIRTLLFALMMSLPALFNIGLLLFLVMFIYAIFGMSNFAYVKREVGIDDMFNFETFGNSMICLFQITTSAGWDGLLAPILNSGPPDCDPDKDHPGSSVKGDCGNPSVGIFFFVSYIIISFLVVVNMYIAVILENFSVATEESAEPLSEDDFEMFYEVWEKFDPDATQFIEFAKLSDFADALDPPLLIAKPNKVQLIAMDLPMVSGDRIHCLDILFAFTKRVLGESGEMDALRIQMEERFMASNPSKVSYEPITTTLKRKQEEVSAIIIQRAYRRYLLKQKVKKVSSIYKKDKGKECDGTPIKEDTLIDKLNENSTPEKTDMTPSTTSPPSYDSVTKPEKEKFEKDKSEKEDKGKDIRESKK

Rattus norvegicus [12] = test: Anticonvulsant activity in po dosed Sprague-Dawley albino rat assessed as protection against maximal electroshock-induced seizures after 0.25 to 4 hrs; format: functional
Mus musculus [13] = test: Anticonvulsant activity in CF-1 albino mouse assessed as protection against 6 Hz psychomotor seizure at 100 mg/kg, ip after 2 hrs; format: functional
Mus musculus [14] = test: Anticonvulsant activity in CF-1 albino mouse assessed as protection against 6 Hz psychomotor seizure at 100 mg/kg, ip after 1 hr; format: functional; conditions: route intraperitoneal
Mus musculus [15] = test: Anticonvulsant activity in ip dosed CF-1 albino mouse assessed as protection against maximal electroshock-induced seizures after 4 hrs; format: functional
Rattus norvegicus [16] = test: Anticonvulsant activity in Sprague-Dawley albino rat assessed as protection against maximal electroshock-induced seizures at 30 mg/kg, po after 1 hr; format: functional
Rattus norvegicus [17] = test: Anticonvulsant activity in Sprague-Dawley albino rat assessed as protection against maximal electroshock-induced seizures at 30 mg/kg, po after 0.25 hrs; format: functional
Rattus norvegicus [18] = test: Anticonvulsant activity in Sprague-Dawley albino rat assessed as time of peak effect for protection against maximal electroshock-induced seizures at 30 mg/kg, po; format: functional
Vibrio harveyi [19] = test: Induction of mutagenecity in Vibrio harveyi BB7M; format: organism-based; conditions: in vivo
Vibrio harveyi [20] = test: Induction of mutagenecity in Vibrio harveyi BB7X; format: organism-based; conditions: in vivo
Mus musculus [21] = test: Anticonvulsant activity in CF-1 albino mouse assessed as protection against 6 Hz psychomotor seizure at 100 mg/kg, ip after 0.5 hrs; format: functional
Vibrio harveyi [22] = test: Antimutagenic activity in Vibrio harveyi BB7X assessed as inhibition of 4-nitroquinoline-N-oxide-induced mutation; format: functional
Vibrio harveyi [23] = test: Induction of mutagenecity in Vibrio harveyi BB7XM; format: organism-based; conditions: in vivo
[24] = biological target: Sodium channel protein type 2 subunit alpha (Homo sapiens) (UniProt Q99250); test: Inhibition of NaV1.2 channel (unknown origin) at 10 uM by electrophysiology
Mus musculus [25] = test: Neurotoxicity in CF-1 albino mouse at 300 mg/kg, ip after 4 hrs by rotarod test; format: toxicity, organism-based; set-up: dose 300 mg/kg, route intraperitoneal; conditions: in vivo
Vibrio harveyi [26] = test: Antimutagenic activity in Vibrio harveyi BB7M assessed as inhibition of 4-nitroquinoline-N-oxide-induced mutation; format: functional
Rattus norvegicus [27] = test: Anticonvulsant activity in Sprague-Dawley albino rat assessed as protection against maximal electroshock-induced seizures at 30 mg/kg, po after 4 hrs; format: functional
Vibrio harveyi [28] = test: Induction of mutagenecity in Vibrio harveyi BB7; format: organism-based; conditions: in vivo
[29] = Neurotoxicity in ip dosed CF-1 albino mouse at 30 to 300 mg/kg, ip after 0.5 to 4 hrs; format: toxicity, organism-based; set-up: route intraperitoneal; conditions: CF-1, mouse, in vivo
Mus musculus [30] = test: Anticonvulsant activity in CF-1 albino mouse assessed as time of peak effect for protection against maximal electroshock-induced seizures at 30 to 300 mg/kg, ip; format: functional; conditions: dose mg/kg 30-300; route intraperitoneal
[31] = Neurotoxicity in po dosed Sprague-Dawley albino rat at 30 mg/kg, po after 0.25 to 4 hrs by rotarod test; format: toxicity, organism-based; set-up: dose 30 mg/kg, route oral; conditions: in vivo
Rattus norvegicus [32] = test: Neurotoxicity in Sprague-Dawley albino rat assessed as motor impairment at 30 mg/kg, po; format: toxicity, organism-based; set-up: dose 30 mg/kg, route oral; conditions: in vivo
[33] = biological target: Sodium channel protein type 2 subunit alpha (Homo sapiens) (UniProt Q99250); test: Inhibition of NaV1.2 channel (unknown origin) at 0.1 uM by electrophysiology
Rattus norvegicus [34] = test: Anticonvulsant activity in Sprague-Dawley albino rat assessed as protection against maximal electroshock-induced seizures at 30 mg/kg, po after 2 hrs; format: functional
Mus musculus [35] = test: Anticonvulsant activity in CF-1 albino mouse assessed as protection against maximal electroshock-induced seizures at 300 mg/kg, ip after 0.5 hrs; format: functional, organism-based; set-up: dose 300 mg/kg
[36] = biological target: Sodium channel protein type 2 subunit alpha (Homo sapiens) (UniProt Q99250); test: Inhibition of NaV1.2 channel (unknown origin) at 100 uM by electrophysiology
Mus musculus [37] = test: Neurotoxicity in CF-1 albino mouse at 300 mg/kg, ip after 0.5 hrs by rotarod test; format: toxicity, organism-based; set-up: dose 300 mg/kg, route intraperitoneal; conditions: in vivo
[38] = Neurotoxicity in ip dosed CF-1 albino mouse after 4 hrs by rotarod test; format: toxicity, organism-based; conditions: CF-1, mouse, in vivo
Rattus norvegicus [39] = organism: Rattus norvegicus; test: Ratio of phenytoin ED50 to compound ED50 for Sprague-Dawley albino rat; format: functional

Structure (SMILES)	Ratio TD50/ED50 (Rattus norvegicus [2])	Ratio TD50/ED50 (Mus musculus [4])	ED50 (Mus musculus [5]) [mg/kg]	Activity (Rattus norvegicus [10])	inhibition [11] [%]	ED50 (Rattus norvegicus [12]) [mg/kg]	Activity (Mus musculus [14]) [%]	MED50 (Mus musculus [15]) [mg/kg]	Activity (Rattus norvegicus [16])	Activity (Rattus norvegicus [17])	Time (Rattus norvegicus [18]) [h]	Activity (Vibrio harveyi [19])	Activity (Vibrio harveyi [20])	Activity (Vibrio harveyi [23])	inhibition [24] [%]	Activity (Rattus norvegicus [27])	Activity (Vibrio harveyi [28])	TD50 [29] [mg/kg]	Time (Mus musculus [30]) [h]	TD50 [31] [mg/kg]	other results
CC1(c2ccccc2)CC(=O)N(CN2CCN(c3cccc(Cl)c3)CC2)C1=O (centres undefined)	>8.95	12.08	41.1	25%	7.76	27.9	50	30	25%	inactive	2	Non-toxic	Non-toxic	Non-toxic	39.6	50%	Non-toxic	496	6	> 250	inhibition (INH) (Vibrio harveyi [1]): 57%; TD50 at 0.5 h [3]: 300 mg/kg; Activity (Mus musculus [6]): 50%; inhibition (INH) (Vibrio harveyi [7]): 25%; Activity (Mus musculus [8]): inactive; Activity (Mus musculus [9]; route intraperitoneal): 25%; Activity (Mus musculus [13]; route intraperitoneal): 50%; Activity (Mus musculus [21]; route intraperitoneal): 25%; inhibition (INH) (Vibrio harveyi [22]): 0%; Activity (Mus musculus [25]): Non-toxic; inhibition (INH) (Vibrio harveyi [26]): 61%; Activity (Rattus norvegicus [32]): Non-toxic; inhibition [33]: 16.3%; Activity (Rattus norvegicus [34]): Active; Activity (Mus musculus [35]): inactive; inhibition [36]: 86.9%
CC1(c2ccccc2)CC(=O)N(CN2CCN(c3ccc(Cl)c(Cl)c3)CC2)C1=O (centres undefined)	11.09	>13.41	37.3	inactive	15.1	15.1	25	30	inactive	inactive	4	Toxic	Non-toxic	Toxic	58.6	Active	Non-toxic	> 500	4	168	TD50 at 0.5 h [3]: 300 mg/kg; Activity (Mus musculus [6]): 50%; Activity (Mus musculus [8]; route intraperitoneal): 25%; Activity (Mus musculus [9]): inactive; Activity (Mus musculus [13]): inactive; Activity (Mus musculus [21]): inactive; Activity (Mus musculus [25]): Non-toxic; Activity (Rattus norvegicus [32]): Non-toxic; inhibition [33]: 3.08%; Activity (Rattus norvegicus [34]): 50%; Activity (Mus musculus [35]): inactive; inhibition [36]: 96.7%
CC1(c2ccccc2)CC(=O)N(CN2CCN(c3ccc(F)cc3)CC2)C1=O (centres undefined)	8.43	4.16	120	25%	14.9	7.78	25	100	50%	25%	4	Non-toxic	Non-toxic	Non-toxic	26.8	75%	Non-toxic	> 500	8	65.6	inhibition (INH) (Vibrio harveyi [1]): 49%; inhibition (INH) (Vibrio harveyi [7]): 8%; Activity (Mus musculus [37]): Non-toxic; Activity (Mus musculus [8]; route intraperitoneal): 50%; Activity (Mus musculus [9]): Active; TD50 at 4 h [38]: 300 mg/kg; Activity (Mus musculus [13]): Active; Ratio ED50 (Rattus norvegicus [39]): 3.5; Activity (Mus musculus [21]): inactive; inhibition (INH) (Vibrio harveyi [22]): 0%; inhibition (INH) (Vibrio harveyi [26]): 62%; Activity (Rattus norvegicus [32]): Non-toxic; inhibition [33]: 10.6%; Activity (Rattus norvegicus [34]): 75%; Activity (Mus musculus [35]): inactive; inhibition [36]: 64%
